# Data as given in US20230278972A1, “SUBSTITUTED HALOALKYL SULFONANILIDE HERBICIDES” (FMC Corporation, priority 2020, published 2023).
# Key:
# Format in all cases: in vivo
# [1] = tested on: barnyardgrass (Echinochloa crus-galli); test: Test A preemergence, barnyardgrass; conditions: Preemergence; for Plant response rating, Barnyardgrass: 0 to 100 scale (0 no effect, 100 complete control); for Barnyardgrass plant response rating: 125 g ai/ha, visual injury on 0 to 100 scale (0 no effect, 100 complete control), approximately 10 days
# How it was run: (§1)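 Directed soil spray at planting gave the preemergence treatment, while foliar application to one- to two-leaf seedlings (2–10 cm) gave the postemergence one; pots held a loam and sand mixture and chemicals were carried in a non-phytotoxic solvent with surfactant.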
# kochia (Bassia scoparia) [2] = test: Test A preemergence, kochia; conditions: Preemergence; for Plant response rating, Kochia: 0 to 100 scale (0 no effect, 100 complete control); for Kochia plant response rating: 125 g ai/ha, visual injury on 0 to 100 scale (0 no effect, 100 complete control), approximately 10 days
# How it was run: as §1
# [3] = tested on: ragweed (common ragweed, Ambrosia artemisiifolia); test: Test A preemergence, ragweed; conditions: Preemergence; for Plant response rating, Ragweed: 0 to 100 scale (0 no effect, 100 complete control); for Ragweed plant response rating: 125 g ai/ha, visual injury on 0 to 100 scale (0 no effect, 100 complete control), approximately 10 days
# How it was run: as §1
# [4] = tested on: Ryegrass, Italian (Italian ryegrass, Lolium multiflorum); test: Test A preemergence, Ryegrass, Italian; conditions: Preemergence; for Plant response rating, Ryegrass, Italian: 0 to 100 scale (0 no effect, 100 complete control); for Ryegrass, Italian plant response rating: 125 g ai/ha, visual injury on 0 to 100 scale (0 no effect, 100 complete control), approximately 10 days
# How it was run: as §1
# [5] = tested on: Foxtail, Giant (giant foxtail, Setaria faberi); test: Test A preemergence, Foxtail, Giant; conditions: Preemergence; for Plant response rating, Foxtail, Giant: 0 to 100 scale (0 no effect, 100 complete control); for Foxtail, Giant plant response rating: 125 g ai/ha, visual injury on 0 to 100 scale (0 no effect, 100 complete control), approximately 10 days
# How it was run: as §1
# [6] = tested on: pigweed (Amaranthus retroflexus); test: Test A preemergence, pigweed; conditions: for Plant response rating, Pigweed: 0 to 100 scale (0 no effect, 100 complete control); for Pigweed plant response rating: 125 g ai/ha, visual injury on 0 to 100 scale (0 no effect, 100 complete control), approximately 10 days
# How it was run: (§2)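 Test chemicals, formulated in a non-phytotoxic solvent mixture with surfactant, were sprayed postemergence on plants 2 to 10 cm tall at the one- to two-leaf stage. Preemergence treatment was a directed soil spray onto freshly seeded pots. Both used a loam soil and sand blend.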
# [7] = tested on: barnyardgrass (Echinochloa crus-galli); test: Test A postemergence, barnyardgrass; conditions: Postemergence, 0 to 100 scale (0 no effect, 100 complete control)
# How it was run: as §2
# kochia (Bassia scoparia) [8] = test: Test A postemergence, kochia; conditions: Postemergence
# How it was run: as §1
# [9] = tested on: ragweed (common ragweed, Ambrosia artemisiifolia); test: Test A postemergence, ragweed; conditions: Postemergence
# How it was run: as §1
# [10] = tested on: Ryegrass, Italian (Italian ryegrass, Lolium multiflorum); test: Test A postemergence, Ryegrass, Italian; conditions: Postemergence
# How it was run: as §1
# [11] = tested on: Foxtail, Giant (giant foxtail, Setaria faberi); test: Test A postemergence, Foxtail, Giant; conditions: Postemergence
# How it was run: as §1
# [12] = tested on: pigweed (Amaranthus retroflexus); test: Test A postemergence, pigweed; conditions: Postemergence
# How it was run: as §1
# [13] = tested on: wheat (Triticum aestivum); test: Test A postemergence, wheat; conditions: Postemergence
# How it was run: as §2
# corn (Zea mays) = test: Test A postemergence, corn; conditions: Postemergence
# How it was run: as §1
# [14] = tested on: blackgrass (Alopecurus myosuroides); test: Test A postemergence, blackgrass; conditions: Postemergence, 0 to 100 scale (0 no effect, 100 complete control)
# How it was run: as §1
# [15] = tested on: galium (catchweed bedstraw, Galium aparine); test: Test A postemergence, galium; conditions: Postemergence
# How it was run: as §2
# [16] = 31 g ai/ha, visual injury, approx. 10 days
# [17] = 125 g ai/ha, visual injury approx. 10 days
# [18] = 31 g ai/ha, visual injury on 0 to 100 scale (0 no effect, 100 complete control), approx. 10 days
# [19] = 125 g ai/ha, visual injury approx. 10 days, 0 to 100 scale (0 no effect, 100 complete control)
# [20] = 125 g ai/ha, 0 to 100 scale (0 no effect, 100 complete control)
# [21] = 500 g ai/ha, visual injury, approx. 10 days
# [22] = 500 g ai/ha, visual injury, 0 to 100 scale (0 no effect, 100 complete control), approx. 10 days
# [23] = 500 g ai/ha, visual injury vs untreated controls after approx. 10 days
# [24] = 500 g ai/ha, visual injury vs untreated controls after approx. 10 days, 0 to 100 scale (0 no effect, 100 complete control)
Compound,Barnyardgrass plant response rating [1],Kochia plant response rating (kochia (Bassia scoparia) [2]),Ragweed plant response rating [3],"Ryegrass, Italian plant response rating [4]","Foxtail, Giant plant response rating [5]",Pigweed plant response rating [6],"Plant response rating, Barnyardgrass [7, 17]","Plant response rating, Kochia (kochia (Bassia scoparia) [8]; [19])","Plant response rating, Foxtail, Giant [11, 19]","Plant response rating, Corn (corn (Zea mays); [19])","Plant response rating, Blackgrass [14, 17]","Plant response rating, Galium [15, 19]","Plant response rating, Barnyardgrass ([1]; 500 g ai/ha)","Plant response rating, Kochia (kochia (Bassia scoparia) [2]; 500 g ai/ha)","Plant response rating, Ragweed ([3]; 500 g ai/ha)","Plant response rating, Ryegrass, Italian ([4]; 500 g ai/ha)","Plant response rating, Foxtail, Giant ([5]; 500 g ai/ha)","Plant response rating, Pigweed ([6]; 500 g ai/ha)","Plant response rating, Ragweed [9, 19]","Plant response rating, Ryegrass, Italian [10, 19]",also measured
CCC(=O)OCN(c1cc(C2=NOC3(CCCC3)C2)c(C)cc1C)S(=O)(=O)C(F)(F)F [Compound 144],100,30,30,90,100,50,20,10,30,30,0,60,,,,,,,,,"Plant response rating, Barnyardgrass [1, 16]: 20; Plant response rating, Kochia (kochia (Bassia scoparia) [2]; [16]): 0; Plant response rating, Ragweed [3, 16]: 0; Plant response rating, Ryegrass, Italian [4, 16]: 70; Plant response rating, Foxtail, Giant [5, 16]: 90; Plant response rating, Pigweed [6, 16]: 70; Plant response rating, Barnyardgrass ([7]; 31 g ai/ha): 0; Plant response rating, Kochia (kochia (Bassia scoparia) [8]; [18]): 10; Plant response rating, Ragweed [9, 18]: 0; Plant response rating, Ragweed [9, 20]: 30; Plant response rating, Ryegrass, Italian [10, 18]: 0; Plant response rating, Ryegrass, Italian [10, 20]: 0; Plant response rating, Foxtail, Giant [11, 18]: 0; Plant response rating, Pigweed [12, 18]: 20; Plant response rating, Pigweed [12, 20]: 40; Plant response rating, Wheat [13, 18]: 0; Plant response rating, Wheat [13, 20]: 60; Plant response rating, Corn (corn (Zea mays); [18]): 0; Plant response rating, Blackgrass ([14]; 31 g ai/ha): 0; Plant response rating, Galium [15, 18]: 30"
COc1cc(-c2cc(N(S(=O)(=O)C(F)(F)F)S(=O)(=O)C(F)(F)F)c(C)cc2C)c(=O)n(C)n1 [Compound 35],70,0,20,40,60,50,0,0,0,0,20,60,90,20,80,50,90,80,0,0,"Plant response rating, Barnyardgrass [7, 21]: 80; Plant response rating, Kochia (kochia (Bassia scoparia) [8]; [22]): 10; Plant response rating, Ragweed [9, 22]: 40; Plant response rating, Ryegrass, Italian [10, 22]: 40; Plant response rating, Foxtail, Giant [11, 22]: 10; Plant response rating, Pigweed [12, 19]: 30; Plant response rating, Pigweed [12, 22]: 60; Plant response rating, Wheat [13, 19]: 0; Plant response rating, Wheat [13, 22]: 40; Plant response rating, Corn (corn (Zea mays); [22]): 0; Plant response rating, Blackgrass [14, 21]: 30; Plant response rating, Galium [15, 22]: 70"
COC1CCN(C(=O)c2cc(NS(=O)(=O)C(F)(F)F)c(C)c(F)c2C)CC1 [Compound 110],40,80,80,20,90,80,20,10,0,0,0,70,90,100,90,90,100,100,90,0,"Barnyardgrass plant response rating [7, 23]: 80; Kochia plant response rating (kochia (Bassia scoparia) [8]; [24]): 50; Ragweed plant response rating [9, 24]: 90; Ryegrass, Italian plant response rating [10, 24]: 50; Foxtail, Giant plant response rating [11, 24]: 90; Plant response rating, Pigweed [12, 19]: 70; Pigweed plant response rating [12, 24]: 100; Plant response rating, Wheat [13, 19]: 20; Wheat plant response rating [13, 24]: 60; Corn plant response rating (corn (Zea mays); [24]): 10; Blackgrass plant response rating [14, 23]: 0; Galium plant response rating [15, 24]: 80"
